Reference: the OligoGym collection
Several values for one entry are separate records, joined by “and”; a condition that tells them apart may be missing. Equal values may be shown once. After the bases stand the sugars from the 5' end (letter, count) and the backbone: PS all phosphorothioate, else s phosphorothioate and o phosphodiester by linkage. Methylation of C is not given here. e = 2'-O-(2-methoxyethyl) (MOE); l = locked nucleic acid (LNA); d = 2'-deoxy (DNA)

How the values were obtained:
DGAT2 = details: ASO
SNHG14 = details: ASO, Human Neuronal Cell, 7.5 µM

| Sequence | target mRNA inhibition (DGAT2; HepG2, 0.12 µM) | target mRNA inhibition (DGAT2; HepG2, 2.5 µM) | target mRNA inhibition (DGAT2; HepG2, 10 µM) | other results |
| --- | --- | --- | --- | --- |
| AAACCCTCGACTGAGTGTGA (sugars e5 d10 e5, PS) | 37% |  |  |  |
| AAATCCATGTCAGAGAGGCT (sugars e5 d10 e5, PS) |  | 64% | 92% |  |
| AACAGGGTACAACTCTCTTG (sugars e5 d10 e5, PS) |  | 61% | 92% |  |
| AACCACTGTTGCTGAGCTCA (sugars e5 d10 e5, PS) |  | 74% and 72% | 88% |  |
| AACTCTGCCATTTAATGAGC (sugars e5 d10 e5, PS) |  | 17% | 53% |  |
| AACTGAGATCTCCAGCAGCA (sugars e5 d10 e5, PS) |  | 91% and 78% | 94% and 96% |  |
| AAGAGCTTCACCAGGGCCTC (sugars e5 d10 e5, PS) | 44% | 10% and 22% | 83% | target mRNA inhibition (DGAT2; HepG2, 20 µM): 92% |
| AAGCCTCGGTGTCCTCTCCT (sugars e5 d10 e5, PS) |  | 50% | 87% |  |
| AAGGCACCTGTTACTACATG (sugars e5 d10 e5, PS) |  | 67% | 93% |  |
| AAGTAAGCCTCGGTGTCCTC (sugars e5 d10 e5, PS) |  | 84% | 69% |  |
| AAGTGAACCCTCACTTCCCA (sugars e5 d10 e5, PS) | 35% |  |  |  |
| AATGCCAATGCCTAGGT (sugars e3 d10 e4, PS) |  | 70% and 69% | 81% and 82% |  |
| AATTTCCTTACAGGGTATTG (sugars e5 d10 e5, PS) | 46% |  |  |  |
| ACAAAAGTCTGACATGGTGC (sugars e5 d10 e5, PS) |  | 77% | 78% |  |
| ACACACAATATCCATGGACT (sugars e5 d10 e5, PS) |  | 68% | 95% |  |
| ACAGCCCAGTTTCGGACCCA (sugars e5 d10 e5, PS) | 27% |  |  |  |
| ACAGCGATGAGCCAGCA (sugars e3 d10 e4, PS) |  | 45% | 88% |  |
| ACAGGACCCACTGGAGCACT (sugars e5 d10 e5, PS) | 79% |  |  |  |
| ACATATCCCCAACTGAAACA (sugars e5 d10 e5, PS) | 21% |  |  |  |
| ACCAGCTGGATGGGAAAGTA (sugars e5 d10 e5, PS) | 21% |  |  |  |
| ACCCCCTCAGGAAGGCACAG (sugars e5 d10 e5, PS) | 25% |  |  |  |
| ACCTCACCTCCATACTGGCA (sugars e5 d10 e5, PS) |  | 65% | 86% |  |

| Sequence | target mRNA inhibition (DGAT2; HepG2, 0.12 µM) | target mRNA inhibition (DGAT2; HepG2, 2.5 µM) | target mRNA inhibition (DGAT2; HepG2, 10 µM) | other results |
| --- | --- | --- | --- | --- |
| ACCTCGATGTTACATTAAGG (sugars e5 d10 e5, PS) |  | 68% | 90% |  |
| ACTATCACACCACCTCCCAC (sugars e5 d10 e5, PS) |  | 2% | 62% |  |
| ACTCCCACCTGAGTGCTGCA (sugars e5 d10 e5, PS) |  | 92% | 80% |  |
| ACTCCCAGTACAAGGAAGGA (sugars e5 d10 e5, PS) | 3% |  |  |  |
| ACTGAGATCTCCAGCAGCAA (sugars e5 d10 e5, PS) |  | 50% and 61% and 56% | 90% and 93% and 92% |  |
| ACTGAGATGACCTGTAGCTG (sugars e5 d10 e5, PS) | 33% |  |  |  |
| ACTGGTGCCTAAGAGCCCTA (sugars e5 d10 e5, PS) |  | 77% | 94% |  |
| ACTTCTTCTGGACCCATCGG (sugars e5 d10 e5, PS) | 28% |  |  |  |
| AGACCACATGAAGTATCTAA (sugars e5 d10 e5, PS) | 50% |  |  |  |
| AGAGGATGCTGGATCCAGTG (sugars e5 d10 e5, PS) | 45% |  |  |  |
| AGAGGGTTCCATGGCACAAA (sugars e5 d10 e5, PS) | 67% |  |  |  |
| AGATATAGTTCCTGGTGGTC (sugars e5 d10 e5, PS) | 56% |  |  |  |
| AGCACAGCGATGAGCCA (sugars e3 d10 e4, PS) |  | 58% | 87% |  |
| AGCACAGCGATGAGCCAGCA (sugars e5 d10 e5, PS) | 35% |  |  |  |
| AGCACTGAGATGACCTGTAG (sugars e5 d10 e5, PS) | 36% |  |  |  |
| AGCACTTGATCTGGGACCCA (sugars e5 d10 e5, PS) |  | 65% | 94% |  |
| AGCAGGTTGTGTGTCTTCAC (sugars e2 d13 e5, PS) | 44% |  |  |  |
| AGCAGGTTGTGTGTCTTCAC (sugars e3 d14 e3, PS) | 63% |  |  |  |
| AGCATTGCCACTCCCATTCT (sugars e2 d13 e5, PS) | 50% |  |  |  |
| AGCCAGGTAAGGCCGTATGC (sugars e3 d14 e3, PS) | 51% |  |  |  |
| AGCCTCGGTGTCCTCTC (sugars e3 d10 e4, PS) |  | 8% | 90% |  |
| AGCGCAGAGCCCATCAGCCT (sugars e5 d10 e5, PS) | 48% |  |  |  |

| Sequence | target mRNA inhibition (DGAT2; HepG2, 0.12 µM) | target mRNA inhibition (DGAT2; HepG2, 2.5 µM) | target mRNA inhibition (DGAT2; HepG2, 10 µM) | other results |
| --- | --- | --- | --- | --- |
| AGCTCAGAGACTCAGCCGCA (sugars e5 d10 e5, PS) |  | 38% and 44% and 55% | 78% and 86% | target mRNA inhibition (DGAT2; HepG2, 20 µM): 89% and 97% |
| AGCTGCAAGGATGACCTTGG (sugars e5 d10 e5, PS) |  | 52% | 34% |  |
| AGCTGCTTTTCCACCTTGGA (sugars e2 d16 e2, PS) | 45% |  |  |  |
| AGCTGGATGGGAAAGTAGTC (sugars e5 d10 e5, PS) | 31% |  |  |  |
| AGCTTGGTGAATAGCTATGT (sugars e5 d10 e5, PS) |  | 75% and 68% | 93% and 92% |  |
| AGGACAGAGGTTCAACATCC (sugars e5 d10 e5, PS) | 53% |  |  |  |
| AGGACCCACTGGAGCAC (sugars e3 d10 e4, PS) |  | 42% | 93% |  |
| AGGACCCACTGGAGCACTGA (sugars e3 d14 e3, PS) | 82% | 16% | 38% | target mRNA inhibition (DGAT2; HepG2, 20 µM): 53% |
| AGGACCCCGGAGTAGGCGGC (sugars e2 d13 e5, PS) | 81% |  | 85% |  |
| AGGATGAACTAAATCCACCA (sugars e5 d10 e5, PS) |  | 62% | 90% |  |
| AGGATGCTTAACTTCTGCTG (sugars e5 d10 e5, PS) |  | 82% | 76% |  |
| AGGCAGATGGACAGGTGATT (sugars e5 d10 e5, PS) |  | 54% | 92% |  |
| AGGCATGCTTCCTCCCA (sugars e3 d10 e4, PS) |  | 73% | 49% |  |
| AGGCATGGAGCTCAGAGACT (sugars e2 d13 e5, PS) | 78% |  |  |  |
| AGGCCCCTTCTGAAGAGGGA (sugars e5 d10 e5, PS) | 43% |  |  |  |
| AGGCCTCGGGAAGCACCTGG (sugars e5 d10 e5, PS) |  | 39% | 84% |  |
| AGGCTCTGGTTCCATGCTCT (sugars e5 d10 e5, PS) |  | 61% | 79% |  |
| AGGCTGAGTTCTGCTCCTGG (sugars e5 d10 e5, PS) |  | 72% | 78% |  |
| AGGGAAGCATGTGCAGCCTA (sugars e5 d10 e5, PS) |  | 72% and 66% | 87% and 90% |  |
| AGGTTAGCTGAGCCACCCAG (sugars e5 d10 e5, PS) | 59% |  |  |  |
| AGGTTGTGTGTCTTCACCAG (sugars e5 d10 e5, PS) | 59% and 74% |  |  |  |
| AGTAAGGGTATTCTGCTCAT (sugars e5 d10 e5, PS) |  | 87% | 77% |  |

| Sequence | target mRNA inhibition (DGAT2; HepG2, 0.12 µM) | target mRNA inhibition (DGAT2; HepG2, 2.5 µM) | target mRNA inhibition (DGAT2; HepG2, 10 µM) | other results |
| --- | --- | --- | --- | --- |
| AGTCCAAACACTCAGGTAGG (sugars e5 d10 e5, PS) |  | 66% | 79% |  |
| AGTCTAGTTGGAAAAGTAGA (sugars e5 d10 e5, PS) | 16% |  |  |  |
| AGTTCCTGGTGGTCAGCAGG (sugars e5 d10 e5, PS) | 58% |  |  |  |
| AGTTTCCTTTGAAATCCAAT (sugars e5 d10 e5, PS) |  | 65% | 88% |  |
| AGTTTCGGACCCACTGTGAC (sugars e2 d13 e5, PS) | 64% |  |  |  |
| AGTTTGCTCAGTTCTTCCAA (sugars e5 d10 e5, PS) |  | 61% | 91% |  |
| ATAACCCACAGACACCCATG (sugars e5 d10 e5, PS) | 24% |  |  |  |
| ATAGGCCTGGATGCCCAAGT (sugars e5 d10 e5, PS) |  | 49% | 88% |  |
| ATATACAAAAGTCTGACATG (sugars e5 d10 e5, PS) | 21% |  |  |  |
| ATCTCAGTCACTGACTCACA (sugars e5 d10 e5, PS) |  | 46% | 95% |  |
| ATGCCAATGCCTAGGTC (sugars e3 d10 e4, PS) |  | 70% and 84% |  |  |
| ATGGGAATGGTATCGCACTC (sugars e5 d10 e5, PS) |  | 57% and 72% | 80% and 96% |  |
| ATTGCCACTCCCATTCTTTG (sugars e5 d10 e5, PS) | 35% |  |  |  |
| CAAATCTGTGTGACCTTGGG (sugars e5 d10 e5, PS) |  | 65% | 93% |  |
| CACCAGCCAAGTGAAGTAGA (sugars e5 d10 e5, PS) | 23% |  |  |  |
| CACCAGGGCCTCCATGTACA (sugars e3 d14 e3, PS) | 41% |  |  |  |
| CACTAAATTAGGAAGCTGGG (sugars e5 d10 e5, PS) |  | 81% and 82% | 83% and 85% |  |
| TTTTTTCTTACTATCTTCAA (sugars llddldldddddddldldll, PS) |  |  |  | target mRNA inhibition (SNHG14): 60% |
| TTTTTTCTTACTATCTTCAA (sugars lldlldlddddddddlddll, PS) |  |  |  | target mRNA inhibition (SNHG14): 58% |
| TTTTTTTCTTACTATCTTCA (sugars l1 d2 l2 d13 l2, PS) |  |  |  | target mRNA inhibition (SNHG14): 43% |
| TTTTTTTCTTACTATCTTCA (sugars l3 d15 l2, PS) |  |  |  | target mRNA inhibition (SNHG14): 28% |
| TTTTTTTCTTACTATCTTCA (sugars ldlddddddddddlddddll, PS) |  |  |  | target mRNA inhibition (SNHG14): 46% |
